Measurements: patent US7186755B2 (Helsinn Health Care S.A., priority 1997, dated 2007)
Like-named read-outs stand apart in the source and are kept apart here.

What was measured:
[1] = rats, 14C nimesulide
[2] = human volunteers, 14C nimesulide

Systemic concentrations of nimesulide after dermal application [1]: no significant systemic concentrations
Systemic concentrations of nimesulide after dermal application [2]: no significant systemic concentrations
Compound: CS(=O)(=O)Nc1ccc([N+](=O)[O-])cc1Oc1ccccc1 [Nimesulide]
